The results in this text go back to PubChem BioAssay (NCI).

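Tested at 5 concentrations; 48 h exposure; 96-well plates; endpoints linearly interpolated, else capped at highest concentration. GI50: concentration for 50% inhibition of growth. At the TGI there is no net growth.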

Assay in all cases: inhibition of tumour cell growth, NCI panel, 48 h
Assay [1] has as its system ACHN renal.
For assay [2], the system named is HCT-116 colon.
The test system of assay [3] is NCI-H522 lung.
Assay [4] deals with OVCAR-5 ovarian.
Assay [5] has as its system SF-539 CNS.
The subject of assay [6] is SNB-19 CNS.
For assay [7], the system named is SR leukemia.
The subject of assay [8] is UACC-257 melanoma.
Assay [9] relates to UACC-62 melanoma.
The test system of assay [10] is MDA-MB-435.

Regarding `Cc1ccc(C)c(NC(=O)c2cc(-c3ccc([N+](=O)[O-])cc3)nc(N)n2)c1`, the TGI in [1], in [2], in assay [3], in assay [4], in assay [5] and in assay [6] was over 100 µM throughout. In addition, the TGI in assay [7], in assay [8] and in assay [9] was over 100 µM throughout.
`COc1ccc2c(c1)c(C1(c3cn(C)c4ccc(OC)cc34)C(=O)Nc3ccc(F)cc31)cn2C`: the GI50 in assay [1] was 4.63 µM; in [2] it was 3.84 µM; in assay [10] it was 3.77 µM; in assay [3], 2670 nM; in assay [4], 9.94 µM; in [5], 15.6 µM. The GI50 in assay [6] was 12.2 µM; in [7], 5.59 µM; in assay [8], 5.28 µM; in assay [9], 7.42 µM. Besides, the TGI in [1] is over 100 µM; in assay [2] it was 15.3 µM; in [10] it was over 100 µM; in [3], 7.75 µM; in assay [4] it was 84.8 µM; in [5] it was 85.2 µM. Moreover, the TGI in [6] was over 100 µM; in [7], 82 µM; in assay [8], over 100 µM; in assay [9], 56.2 µM.
Regarding `CCC[C@H](N[C@@H]1CCc2cc(F)cc(F)c2C1)C(=O)Nc1cn(C(C)(C)CNCC(C)(C)C)cn1`, the GI50 in assay [1] was 22.7 µM; in assay [2], 5.31 µM; in [10] it was 17 µM; in [3], 15700 nM; in assay [4], 21.1 µM; in [5], 16.7 µM. For the same molecule, the GI50 in [6] was 26.6 µM; in [7], 14.2 µM; in assay [8], 13.2 µM; in assay [9] it was 15.6 µM. Moreover, the TGI in [1] is over 96.7 µM; in assay [2], 20.2 µM; in assay [10], 53.2 µM; in [3], 56.1 µM; in assay [4], over 77.7 µM; in [5], 34.6 µM. The TGI is over 94.6 µM in [6], over 79 µM in assay [7], 37.7 µM in [8] and 34.1 µM in assay [9].
On to `Cc1c(C(=O)/C=C/c2ccc(Cl)cc2)[n+](=O)c2ccccc2n1[O-]`, for which the TGI is 29.6 µM in assay [1]; 18.5 µM in assay [2]; 17 µM in assay [3]; 28.3 µM in assay [4]; 25.7 µM in assay [5]; 27.8 µM in [6]. The results for the TGI in assay [7], in assay [8] and in assay [9] were 73.1 µM, 30.4 µM and 26.8 µM, respectively.
With `CN1CCN(c2ccc3nc(-c4cc(C(C)(C)C)c(O)c(C(C)(C)C)c4)[nH]c3c2)CC1`, the GI50 in assay [1] was 3.06 µM; in assay [2], 1.85 µM; in assay [10], 1.73 µM; in assay [3], 2110 nM; in assay [4], 3.53 µM; in assay [5], 1.79 µM. Further, the GI50 in assay [6] is 3.29 µM; in assay [7], 2.45 µM; in assay [8], 2 µM; in assay [9], 1.87 µM. In addition, the TGI is 8.62 µM in [1]; 4.06 µM in assay [2]; 3.16 µM in [10]; 4.33 µM in [3]; 12 µM in assay [4]; 3.35 µM in [5]. Further, the TGI worked out at 12.4 µM in assay [6], 8.58 µM in assay [7], 3.97 µM in assay [8] and 3.38 µM in assay [9].
`Cc1ccc(NC(=O)/C(CC(=O)c2c[n+](=O)c3ccccc3n2O)=N\NC(=O)C[n+]2ccccc2)cc1`: the TGI in assay [1], in [2], in assay [3], in assay [4], in [5] and in assay [6] was over 100 µM throughout. For the same molecule, the TGI in assay [7], in assay [8] and in [9] was over 100 µM throughout.
As to `CC(c1ccc(Br)cc1)C(C(=O)O)C(=O)O` (centres undefined), the TGI in assay [1], in [2], in assay [3], in [4], in assay [6] and in assay [7] was over 100 µM throughout. The TGI in assay [8] and in [9] was over 100 µM throughout.
Take `CCOC(=O)/N=C(\N)SCc1ccccc1`: the TGI in [1], in [2], in [3], in [4], in assay [5] and in [6] was over 100 µM in each case. For the same molecule, the TGI in [7], in [8] and in assay [9] was over 100 µM each time.
Turning to `CCC(Sc1nnc2c3ccccc3n(CC)c2n1)C(=O)Nc1ccccc1OC` (centres undefined), the GI50 is 83.8 µM in assay [1]; 48.5 µM in assay [2]; over 100 µM in assay [10]; over 100000 nM in assay [3]; 1.94 µM in assay [4]; over 100 µM in assay [5]. In addition, the GI50 in assay [6], in assay [7], in assay [8] and in assay [9] was over 100 µM throughout. The TGI is over 100 µM in assay [1]; over 100 µM in assay [2]; over 100 µM in assay [10]; over 100 µM in [3]; 11.7 µM in assay [4]; over 100 µM in assay [5]. Moreover, the TGI in [6], in assay [7], in [8] and in assay [9] was over 100 µM in each case.
Take `CCCCCCCCCCCCCCCC(=O)OCC(O)C1OC(=O)C(O)=C1O` (centres undefined): the TGI in assay [1] was 98.7 µM; in [2], 36.7 µM; in [10], 42.4 µM; in assay [3], over 100 µM; in assay [4], 95.4 µM; in assay [5] it was 53.2 µM. The TGI is 91.4 µM in [6], over 100 µM in assay [7], over 100 µM in assay [8] and 75 µM in [9].
